Marks after values point to notes of the source that are not given here.
Legend:
BALB/c mice = assay: LPS-induced endotoxaemia, survival of mice (Example 1); assay type: in vivo, mouse; settings: for animals alive 7 days after LPS injection: 200 μl of 300 μM peptide i.p. 1 hour before 200 μg LPS i.p., 10 mice per group (FIG. 2, 3); for protection (survival) from LPS: 4 hours after LPS (FIG. 4)
Description: BALB/c mice (10 per group) were injected intraperitoneally with 200 μg LPS. The TREM-1 peptides P1, P2, P3, or P5 (200 μl of a 300 μM solution per mouse) were injected intraperitoneally 1 hour before LPS. Viability of mice was monitored twice a day for 7 days. Statistical analysis was performed by Logrank test. Data from control mice represent cumulative survival curves from two independent experiments performed under identical conditions.
BALB/c mice (10 per group) were injected intraperitoneally with 200 μg LPS. TREM-1 peptide P1, 200 μl of a 300 μM solution per mouse was injected intraperitoneally 1 hour before or 4 hours after LPS. Viability of mice was monitored twice a day for 7 days. Statistical analysis was performed with the Logrank test. Data from control mice represent cumulative survival curves from two independent experiments performed under identical conditions
BALB/c mice (10 per group) were injected intraperitoneally with 200 μg LPS. P1 peptide, 200 μl of a 150, 300 and 600 μM solution per mouse (dots) or P3, 200 μl of a 600 μM solution per mouse (filled squares) were injected intraperitoneally 4 hours after LPS. Viability of mice was monitored twice a day for 7 days. Statistical analysis was performed with the Logrank test
In the experiments of this example, the peptides were administered in a volume of 200 μl of the solution molarity indicated. To assess the ability of TREM1-peptides to protect mice from LPS-induced endotoxaemia, the Inventors administered peptides P1, P2, P3 and P5 (300 μM) 1 hour before a lethal dose of lipopolysaccharide (LPS) (FIG. 2). Lethality was monitored over time and compared with animals that had received control injections of vehicle alone. P5 injection confers maximal protection, with 90% of the animals still alive 7 days after LPS injection, as compared with 10% of control mice (p<0.001). 60% of the P1-treated mice and 50% of the P2 treated mice survived endotoxaemia as compared with 10% of control mice (p<0.01 and p<0.05 respectively).
In order to investigate whether TREM-1 peptide treatment could be delayed until after the administration of LPS, the Inventors injected the peptides at 4 hours after LPS injection. […] 80% of the mice injected with P1 4 hours after LPS survived endotoxaemia compared to 60% of mice treated 1 h before LPS and 10% of mice treated with vehicle alone (p<0.001 and p<0.01 respectively). Thus, P1 is effective even when injected after the outbreak of endotoxaemia. […] P1 administration conferred maximal protection (80%) when administered at 600 μM (p<0.01) and the level of protection dropped to 50% at 300 μM (p<0.05) and further down to 30% at 150 μM as compared to 20% of control mice, indicating a dose dependent effect of P1 (FIG. 4). The Inventors then investigated whether P1 protects against septic shock in the “CLP” model (Cecal Ligation and Puncture is a widely used experimental model of sepsis). Mice treated with two doses of P1 at 5 and 24 hours after CLP were protected from death as compared to control treated mice (p=0.0791) although the difference was not statistically significant. 40% of the mice injected with P1 at 5 days after CLP survived compared to 5% of mice treated with P3 peptide.

[1] = test system: TREM-1/TREM-1 ligand interaction; assay: competition of soluble mouse TREM-1/IgG1 binding to TREM-1 ligand positive peritoneal exudate cells (flow cytometry); settings: peptides 100 and 500 μM, pre-incubated 45 minutes on ice; 2 μg/ml mouseTREM-1/hIgG1
Description: Cytofluorimetric analysis of peritoneal exudate cells with 2 μg/ml of mouseTREM-1/hIgG1 in the presence of a 500 μM solution per mouse (thin line), 100 μM solution per mouse (dotted line) or absence (thick line) of the peptides is shown. The grey histogram represents immunostaining with human IgG1 as a control.
A possible mechanism of action could be the ability of TREM-1 derived peptide to interfere with TREM-1/TREM-1 ligand interaction. To address this question the Inventors performed competition experiments on TREM-1 ligand positive cells: PEC (Peritoneal Exudate Cells) from CLP treated mice.
Peritoneal exudate cells (PEC) from mice suffering from a caecal ligation and puncture (CLP)-induced peritonitis were subjected to flow cytometry analysis after incubation with a PE-conjugated anti-human IgG1 (Jackson Immunoresearch, Bar Harbor, USA). Competition with TREM-1 peptides was performed by pre-incubating cells with the indicated concentrations of peptides for 45 minutes on ice before adding mTREM-1-IgG1.

rats = assay: LPS-induced endotoxinemia in rats, haemodynamic and biological measurements; assay type: in vivo, rat; settings: for effect on plasma IL-1β release: LPS 15 mg/kg (FIG. 13B); for Nitrite/nitrate concentrations after LPS administration: LPS 15 mg/kg (FIG. 14); for Aortic blood flow / Heart Rate / Lactate / MAP / Mesenteric blood flow / pH (arterial): LPS-induced endotoxinemia
Description: Animals were randomly grouped (n=10-20) and treated with Escherichia coli LPS (0111:B4, Sigma-Aldrich, Lyon, France) i.p. in combination with the TREM-1 or scrambled peptides.
Immediately after LPS administration as well as 16 hours after CLP, arterial BP (systolic, diastolic, and mean), heart rate, abdominal aortic blood flow, and mesenteric blood flow were recorded using a procedure described elsewhere (see Mansart, A. et al. Shock 19:38-44 (2003)). Briefly, the left carotid artery and the left jugular vein were cannulated with PE-50 tubing. Arterial BP was continuously monitored by a pressure transducer and an amplifier-recorder system (IOX EMKA Technologies, Paris, France). Perivascular probes (Transonic Systems, Ithaca, N.Y.) wrapped up the upper abdominal aorta and mesenteric artery, allowed to monitor their respective flows by means of a flowmeter (Transonic Systems). After the last measurement (4th hour during LPS experiments and 24th hour after CLP), animals were sacrificed by an overdose of sodium thiopental i.v.
Blood was sequentially withdrawn from the left carotid artery. Arterial lactate concentrations and blood gases analyses were performed on an automatic blood gas analyser (ABL 735, Radiometer, Copenhagen, Denmark). Concentrations of TNF-α and IL-1β in the plasma were determined by an ELISA test (Biosource, Nivelles, Belgium) according to the recommendations of the manufacturer. Plasmatic concentrations of nitrates/nitrites were measured using the Griess reaction (R&D Systems, Abingdon, UK).

| Sequence | animals alive 7 days after LPS injection (BALB/c mice) [%] | inhibition of TREM-1 interaction with its ligand (mTREM-1/IgG1 binding to PEC) [1] | effect on plasma IL-1β release (rats) | Nitrite/nitrate concentrations after LPS administration (rats) | Aortic blood flow (rats; H0) [mL/min] | Heart Rate (rats; H0) [bpm] | Lactate (rats; H0) [mmol/L] | MAP (rats; H0) [mmHg] | Mesenteric blood flow (rats; H0) [mL/min] | pH (arterial) (rats; H0) | Aortic blood flow (rats; H1) | Heart Rate (rats; H1) [bpm] | Lactate (rats; H1) [mmol/L] | MAP (rats; H1) [mmHg] | Mesenteric blood flow (rats; H1) [mL/min] | pH (arterial) (rats; H1) | Aortic blood flow (rats; H2) | Heart Rate (rats; H2) [bpm] | Lactate (rats; H2) [mmol/L] | MAP (rats; H2) [mmHg] | further results |
| --- | --- | --- | --- | --- | --- | --- | --- | --- | --- | --- | --- | --- | --- | --- | --- | --- | --- | --- | --- | --- | --- |
| LQVTDSGLYRCVIYHPP [P5] | 90 | inhibit TREM-1 interaction with its ligand in a dose dependent manner | strongly reduced | remained stable | 48 ± 9 | 474 ± 49 | 3.4 ± 1.5 | 115 ± 16 | 12.8 ± 6.4 | 7.33 ± 0.04 | 32 ± 8 mL/min | 498 ± 26 | 5.4 ± 1.4 | 99 ± 22 | 11.4 ± 2.7 | 7.28 ± 0.06 | 23 ± 4 ^b mL/min | 510 ± 42 | 5.5 ± 1.6 | 101 ± 18 | attenuation of plasma TNF-α production (rats; LPS 15 mg/kg (FIG. 13A)): ~30%; Mesenteric blood flow (rats; H2): 9.2 ± 1.9 mL/min; pH (arterial) (rats; H2): 7.32 ± 0.07; Aortic blood flow (rats; H3): 20 ± 7 ^b mL/min; Heart Rate (rats; H3): 517 ± 62 bpm; Lactate (rats; H3): 5.9 ± 1.7 ^b mmol/L; MAP (rats; H3): 93 ± 21 ^b mmHg; Mesenteric blood flow (rats; H3): 6.0 ± 0.8 mL/min; pH (arterial) (rats; H3): 7.29 ± 0.11; Aortic blood flow (rats; H4): 15 ± 6 ^b mL/min; Heart Rate (rats; H4): 510 ± 26 bpm; Lactate (rats; H4): 7.4 ± 1.8 ^b mmol/L; MAP (rats; H4): 89 ± 10 ^b mmHg; Mesenteric blood flow (rats; H4): 5.0 ± 1.0 mL/min; pH (arterial) (rats; H4): 7.28 ± 0.12 ^b |
| LVVTQRPFTRPSEVHMGKFTLKH (listed as Mus musculus) [P1] | 60 | inhibit TREM-1 interaction with its ligand in a dose dependent manner | delayed the IL-1β peak until the third hour after LPS injection, but without attenuation | increased rapidly | 49 ± 11 | 464 ± 25 | 2.7 ± 0.1 | 116 ± 10 | 12.0 ± 3.7 | 7.32 ± 0.04 | 39 ± 12 ^a mL/min | 492 ± 26 | 4.9 ± 1.1 | 119 ± 14 | 10.5 ± 1.7 | 7.29 ± 0.04 | 26 ± 14 ^a mL/min | 492 ± 26 | 5.0 ± 0.9 | 113 ± 21 | protection (survival) from LPS (BALB/c mice; 200 μl of 150 μM): 30%; protection (survival) from LPS (BALB/c mice; 200 μl of 300 μM): 50%; protection (survival) from LPS (BALB/c mice; 200 μl of 600 μM): 80%; late death over one week (BALB/c mice; delayed treatment after LPS): No late death occurred; mice surviving endotoxaemia (BALB/c mice; peptide 300 μM injected 4 hours after LPS (FIG. 3)): 80%; effect on LPS-induced plasma TNF-α production (rats; LPS 15 mg/kg (FIG. 13A)): no effect; Mesenteric blood flow (rats; H2): 7.7 ± 2.7 mL/min; pH (arterial) (rats; H2): 7.30 ± 0.01; Aortic blood flow (rats; H3): 22 ± 8 ^a mL/min; Heart Rate (rats; H3): 480 ± 30 bpm; Lactate (rats; H3): 5.7 ± 0.7 ^a mmol/L; MAP (rats; H3): 97 ± 29 ^a mmHg; Mesenteric blood flow (rats; H3): 5.0 ± 1.0 mL/min; pH (arterial) (rats; H3): 7.26 ± 0.06; Aortic blood flow (rats; H4): 16 ± 6 ^a mL/min; Heart Rate (rats; H4): 480 ± 20 bpm; Lactate (rats; H4): 7.9 ± 1.7 ^a mmol/L; MAP (rats; H4): 92 ± 7 ^a mmHg; Mesenteric blood flow (rats; H4): 4.8 ± 0.9 mL/min; pH (arterial) (rats; H4): 7.26 ± 0.08 ^a |
